Patent EP2229935A1, “Peptide derivatives or pharmaceutically acceptable salts thereof, method for producing the same, use of said derivatives and pharmaceutical composition” (Nebolsin, Vladimir Evgenievich, priority 1997, dated 1999)
Values joined by “and” are separate entries in the source; they are usually repeats but may differ in a detail not shown here. Equal entries are not always repeated. Marks after values point to notes of the source that are not given here.

How the values were obtained:
Type in all cases: in vivo
[1] = tested on: Lewis pulmonary carcinoma (LLC); experiment: Lewis pulmonary carcinoma spontaneous metastasizing, oral administration; conditions: BDF1 female mice with LLC, oral 24 days; for Mean number of metastases: day 25
Experimental: Each group included 15 animals. 0.3 ml of LLC tumor tissue suspension was intramuscularly injected to mice. Henks solution was used as a solvent. […] Moscow (1992) 13 pp.]. […]

[2] = tested on: Male guinea pigs; experiment: Antigen-induced bronchospasm in actively sensitized guinea pigs; conditions: sensitized guinea pigs
Experimental: Antiasthmatic effect of the test compounds was studied using an antigen-induced bronchospasm model in actively sensitized guinea pigs according to the Andersson method [Andersson P. Antigen induced bronchial anaphylaxis in actively sensitized guinea pig. Allergy (1980), Vol. 35, pp. 65-71].
Male guinea pigs were sensitized with intramuscular injection of 0.5 ml suspension comprising 20 micrograms ovalbumin (OVA, manufactured by the Sigma company [grade III]) and 100 mg Al(OH)3 per one animal. Anaphylaxis-provoking dose 150-200 µg/kg OVA in 0.1 ml normal saline was intravenously (v. jugularis) injected on day 26 after sensibilization. Bronchospasm induction and measuring external respiration parameters were carried out according to the method described in Yu-Hong L., Barnes P., Rogers D. Inhibition of neurogenic plasma exudation and bronchoconstriction by a K+ channel activator, BRL 38227, in guinea pig airways in vivo. Europ. J. Pharmacol. (?), Vol. 239, pp.257-259]. Measurement of respiration parameters was performed using a transducer (Ugo Basel, model 7020), connected with a cannula and a recorder (Millichrome), recording breathing amplitude. […] Efficacy of compounds was determined by change in bronchospasm value.
Inthal was used as a reference drug that was administered to animals at a dose 5 µg/kg according to the same dosage regimen as the test substances were administered. The control group of animals received equivalent amount of normal saline.
Groups of animals: group 1 - control; group 2 - animals given Inthal; group 3 - animals given oral compound XLIV; group IV - animals given oral compound III; group 5 - animals given intratracheal compound III; group 6 - animals given compound XLIX, group 7 - animals given compound XXXI, group 8 - animals given compound XLVI; group 9 - animals given compound VI, group 10 - animals given compound XLVIII.

[3] = tested on: hepatic P-450 cytochrome system; experiment: Hexenal sleep duration in mice
How it was run: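 Male mice (several inbred/hybrid lines, 18-20 g, n=10) and mongrel male guinea pigs (250-300 g, n=24) given compounds orally in drinking water for three days at 50 and 500 µg/kg. Hexenal given 24 h after last dose ([…]); sleep duration recorded in minutes.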

[4] = tested on: mongrel male mice; experiment: Passive cutaneous anaphylaxis reaction; conditions: PCA, oral 3 days
Experimental: Experiments were carried out on mongrel male mice with initial body mass 22-24 g. Each group included 10 animals. Sensibilization of animals was accomplished by intradermal injection of 20-30 µl of the serum of mice obtained from preliminaryly immunized animals comprising reagent antibodies against chicken ovalbumin (OVA). […] In 48 hours after sensibilzation an anaphylaxis-provoking OVA dose (1 mg and 0,2 ml Evans blue in 0.2 ml normal saline) were intravenously injected to mice. Passive cutaneous anaphylaxis reaction intensity (PCA) was determined in 30 minutes by the size (area) of a blue spot on the internal skin surface in the site of reagent anibodies' administration. Spot size was measured in two mutually perpendicular directions and the result was expressed in mm^2.

[5] = tested on: Wistar male rats; experiment: Blood glucose level in intact rats; conditions: for Blood glucose level (mg/dl) 2 hours after / Blood glucose level (mg/dl) 5 hours after: deprived of food; for Blood glucose level (mg/dl) 2 hours before: intragastral four days
Experimental: Experiments were carried out on Wistar male rats weighing 250-300 g. Experimental diabetes was induced with single intravenous injection of streptozotocine (the Synthez cooperative enterprise at the IMBG of the Academy of Sciences of Ukraine) at a dose 42 mg/kg to rats which were preliminarily fasting for 24 hours with access to food immediately following injection. Rats were selected for experiment 2 weeks after diabetes induction with glycemia 120-180 mg/dl. Each group included 12 animals.
The compounds were intragastrally administered to intact animals and to rats with streptozotocine diabetes for four days at daily doses 50 µg/kg and 500 µg/kg in water solution at a rate of 1 ml per 200 g of body mass. Intact animals were given the compounds III and XLIV, and rats with induced diabetes were given the compound XLIV. Check blood glucose level determination was done at the day of experiment, then animals were administered the test compounds and were deprived of food. The control animals received a respective water volume. Effect was estimated by change in blood glucose level in 2 and 5 hours. Then animals received forage and 24 hours after the last drug administration blood was again sampled for examination. 0.1 ml of blood were collected from the tail vein. Glucose level was determined using the o-toluidine method.
Glucose level was calculated in mg/dl using standard glucose solutions. Then the degree of change in glucose level in relation to the initial level was determined for each animal with its expression in percent from the initial level. Final calculation was performed for each group of animals. Each group included 10 animals.

[6] = tested on: Salmonella spp.; experiment: Resistance of mice to Salmonella spp. infection; conditions: test compounds 500 µg/kg orally; for MLT: mean lifetime
Experimental: Effect of the compounds of general formula (I) on change in average lifetime of experimental animals infected with Salmonella spp.
Experiments were carried out on mongrel white mice of both sexes weighing 18-22 g. Compounds III, XLIV and the reference drug sodium nucleinate were administered orally for 3 days (a total of 6 times) prior and post infection (dosage regimen -3, -2, -1, 0, 1, 2, 3, where 0 is infection day). A 24-hour Salmonella spp. culture grown on Hottinger agar, was used for infecting. Normal saline solution was used to prepare cellular suspension. Suspension of Salmonella spp. cells was administered subcutaneously at a dose 5 x 10^8 cells per a mouse in 0.5 ml.

[7] = 50 µg/kg per os, 72, 48 and 18 hours prior to bronchospasm induction
[8] = Day 1 following infection, regimen -3..3

Molecule	Mean number of metastases ([1]; 50 µg/kg)	Mean number of metastases ([1]; 500 µg/kg)	Metastasizing inhibition percent ([1]; 50 µg/kg)	Metastasizing inhibition percent ([1]; 500 µg/kg)	Bronchospasm (percent of the maximum value) [2, 7]	Percent of the reaction inhibition ([4]; 50 µg/kg)	Reaction intensity, mm^2 ([4]; 50 µg/kg)	Blood glucose level (mg/dl) 24 hours after ([5]; 50 µg/kg)	Blood glucose level (mg/dl) 24 hours after ([5]; 500 µg/kg)	Blood glucose level (mg/dl) 2 hours after ([5]; 50 µg/kg)	Blood glucose level (mg/dl) 5 hours after ([5]; 50 µg/kg)	Blood glucose level (mg/dl) 2 hours after ([5]; 500 µg/kg)	Blood glucose level (mg/dl) 5 hours after ([5]; 500 µg/kg)	Blood glucose level (mg/dl) 2 hours before ([5]; 50 µg/kg)	Blood glucose level (mg/dl) 2 hours before ([5]; 500 µg/kg)	Number of dead mice [6, 8]	Number of dead mice ([6]; Day 3 following infection)	Number of dead mice ([6]; Day 5 following infection)	Number of dead mice ([6]; Day 6 following infection)	Number of dead mice ([6]; Day 7 following infection)	also measured
O=C(O)CCCC(=O)NCCc1c[nH]cn1 [compound III, N-GLUTARYLHISTAMINE]	38.5 ±6.3**^1	30.1 ± 2.7**^1	26.0%	42.0%	12.0 4.0** percent of the maximum value	42%	51.6 ± 17.1*^2 mm^2	66.5 ± 3.3 mg/dL	73.1 ± 3.4 mg/dL	58.5 ± 5.9 mg/dL	70.8 ± 5.5 mg/dL	69.9 ± 2.8*^2 mg/dl	72.6 ± 1.5*^2 mg/dl	84.2 ± 6.1 mg/dL	71.3 ± 4.0 mg/dL	1	1	1	2	2	Bronchospasm (percent of the maximum value) ([2]; 50 µg/kg intratracheally, 15 minutes prior to bronchospasm induction): 24.6 6.4* percent of the maximum value; Hexenal sleep duration (minutes) ([3]; CBF1 mice, oral 3 days, 50 µg/kg, control 25.91 ± 1.57): 19.61 ± 2.69** minutes; Hexenal sleep duration (minutes) ([3]; CBF1 mice, oral 3 days, 500 µg/kg, control 25.91 ± 1.57): 22.02 ± 1.45 * minutes; Percent of the reaction inhibition ([4]; 150 µg/kg): 34.3%; Reaction intensity, mm^2 ([4]; 150 µg/kg): 53.7 ± 10.1*^1 mm^2; Percent of the reaction inhibition ([4]; 500 µg/kg): 30.0%; Reaction intensity, mm^2 ([4]; 500 µg/kg): 57.2 ± 12.6*^1 mm^2; Number of dead mice ([6]; Day 2 following infection): 1*^1; Number of dead mice ([6]; Day 4 following infection): 2; MLT [6]: 4.5 ± 0.65 days
γ-L-glutamylhistamine [compound XLIV]	42.4 ± 4.5	31.9 ± 3.8*^2	10.0%	32.0%	15.6 3.2** percent of the maximum value	50%	44.6 ± 11.6 mm^2	79.9 ± 5.2 mg/dL	83.7 ± 4.0 mg/dL	60.8 ± 4.0 mg/dL	64.0 ± 3.1 mg/dL	64.8 ± 4.2 mg/dL	65.9 ± 3.9 mg/dL	81.2 ± 3.8 mg/dL	80.8 ± 2.7 mg/dL	3*^2	1	5	2	1	Hexenal sleep duration ([3]; BALB/c*h75 mice, oral 3 days, 50 µg/kg, control 29.16 ± 5.68): 26.50 ± 3.49 min; Hexenal sleep duration (minutes) ([3]; BALB/c*h75 mice, oral 3 days, 500 µg/kg, control 29.16 ± 5.68): 16.72 ± 1.27*** minutes; Hexenal sleep duration (minutes) ([3]; BDF1 mice, oral 3 days, 500 µg/kg, control 23.78 ± 0.78): 20.33 ± 0.59* minutes; Hexenal sleep duration (minutes) ([3]; mouse, in vivo, po): 17.98 ± 1.66* minutes and 16.13 ± 1.86** minutes; MLT [6]: 4.0 ± 0.73 days
